Experimental data from the NIST ThermoML archive (doi:10.1016/j.jct.2016.02.025).
± gives the expanded uncertainty stated by the source.

Tests used:
[1] = 100 kPa; for speed of sound: Frequency=3 MHz, Sing-around technique in a fixed-path interferometer; for mass density: Vibrating tube method
[2] = refractive index (Na D-line) (dimensionless); details: 100 kPa, Standard Abbe refractometry

Compound CCCCn1cc[n+](C)c1.[Br-] [1-butyl-3-methylimidazolium bromide] has a speed of sound ([1]; 293.15 K, Metastable liquid) of 1675.2 ± 3.5 m/s, a mass density ([1]; 293.15 K, Metastable liquid) of 1293.44 ± 3.2 kg/m3 and a speed of sound ([1]; 298.15 K, Metastable liquid) of 1665.7 ± 3.5 m/s. It also gave a mass density ([1]; 298.15 K, Metastable liquid) of 1290.02 ± 3.2 kg/m3, a speed of sound ([1]; 303.15 K, Metastable liquid) of 1656 ± 3.5 m/s and a mass density ([1]; 303.15 K, Metastable liquid) of 1286.59 ± 3.2 kg/m3. The speed of sound ([1]; 308.15 K, Metastable liquid) was 1646 ± 3.5 m/s, the mass density ([1]; 308.15 K, Metastable liquid) was 1283.16 ± 3.2 kg/m3 and the speed of sound ([1]; 313.15 K, Metastable liquid) was 1636.1 ± 3.5 m/s. The mass density ([1]; 313.15 K, Metastable liquid) was 1279.72 ± 3.2 kg/m3, the speed of sound ([1]; 318.15 K, Metastable liquid) was 1626.7 ± 3.5 m/s and the mass density ([1]; 318.15 K, Metastable liquid) was 1276.28 ± 3.2 kg/m3. The speed of sound ([1]; 323.15 K, Metastable liquid) was 1616.8 ± 3.5 m/s, the mass density ([1]; 323.15 K, Metastable liquid) was 1272.84 ± 3.1 kg/m3 and the refractive index ([2]; 293.15 K, Metastable liquid) was 1.54699 ± 0.0012. For the same compound, the refractive index ([2]; 298.15 K, Metastable liquid) was 1.54575 ± 0.0012, the refractive index ([2]; 303.15 K, Metastable liquid) was 1.54445 ± 0.0012 and the refractive index ([2]; 308.15 K, Metastable liquid) was 1.54312 ± 0.0012. The refractive index ([2]; 313.15 K, Metastable liquid) was 1.54186 ± 0.0012, the refractive index ([2]; 318.15 K, Metastable liquid) was 1.54052 ± 0.0012 and the refractive index ([2]; 323.15 K, Metastable liquid) was 1.53928 ± 0.0012.
CCCCCCCCn1cc[n+](C)c1.[Br-] [1-methyl-3-octylimidazolium bromide] showed a speed of sound ([1]; 293.15 K, Liquid) of 1481.8 ± 2.5 m/s, a mass density ([1]; 293.15 K, Liquid) of 1179.3 ± 1.5 kg/m3 and a speed of sound ([1]; 298.15 K, Liquid) of 1467.6 ± 2.5 m/s. For the same compound, the mass density ([1]; 298.15 K, Liquid) was 1175.69 ± 1.5 kg/m3, the speed of sound ([1]; 303.15 K, Liquid) was 1454.3 ± 2.5 m/s and the mass density ([1]; 303.15 K, Liquid) was 1172.08 ± 1.5 kg/m3. For the same compound, the speed of sound ([1]; 308.15 K, Liquid) was 1441.4 ± 2.5 m/s, the mass density ([1]; 308.15 K, Liquid) was 1168.54 ± 1.5 kg/m3 and the speed of sound ([1]; 313.15 K, Liquid) was 1428.8 ± 2.5 m/s. The mass density ([1]; 313.15 K, Liquid) was 1165.04 ± 1.5 kg/m3, the speed of sound ([1]; 318.15 K, Liquid) was 1416.5 ± 2.5 m/s and the mass density ([1]; 318.15 K, Liquid) was 1161.52 ± 1.5 kg/m3. The speed of sound ([1]; 323.15 K, Liquid) was 1404.4 ± 2.5 m/s, the mass density ([1]; 323.15 K, Liquid) was 1157.99 ± 1.5 kg/m3 and the refractive index ([2]; 293.15 K, Liquid) was 1.498 ± 0.0011. For the same compound, the refractive index ([2]; 298.15 K, Liquid) was 1.49656 ± 0.0011, the refractive index ([2]; 303.15 K, Liquid) was 1.49502 ± 0.0011 and the refractive index ([2]; 308.15 K, Liquid) was 1.49347 ± 0.0011. The refractive index ([2]; 313.15 K, Liquid) was 1.49176 ± 0.0011, the refractive index ([2]; 318.15 K, Liquid) was 1.49008 ± 0.0011 and the refractive index ([2]; 323.15 K, Liquid) was 1.48842 ± 0.0011.
CCCCCCn1cc[n+](C)c1.[Br-] [3-hexyl-1-methyl-1H-imidazolium bromide] gave a speed of sound ([1]; 293.15 K, Liquid) of 1609.1 ± 2.3 m/s, a mass density ([1]; 293.15 K, Liquid) of 1227.46 ± 1.4 kg/m3 and a speed of sound ([1]; 298.15 K, Liquid) of 1588.1 ± 2.3 m/s. It also gave a mass density ([1]; 298.15 K, Liquid) of 1223.74 ± 1.4 kg/m3, a speed of sound ([1]; 303.15 K, Liquid) of 1570.4 ± 2.3 m/s and a mass density ([1]; 303.15 K, Liquid) of 1220.31 ± 1.4 kg/m3. It also gave a speed of sound ([1]; 308.15 K, Liquid) of 1552.3 ± 2.3 m/s, a mass density ([1]; 308.15 K, Liquid) of 1216.69 ± 1.4 kg/m3 and a speed of sound ([1]; 313.15 K, Liquid) of 1534.4 ± 2.3 m/s. The mass density ([1]; 313.15 K, Liquid) was 1213.05 ± 1.4 kg/m3, the speed of sound ([1]; 318.15 K, Liquid) was 1517.4 ± 2.3 m/s and the mass density ([1]; 318.15 K, Liquid) was 1209.41 ± 1.4 kg/m3. It also gave a speed of sound ([1]; 323.15 K, Liquid) of 1500 ± 2.3 m/s, a mass density ([1]; 323.15 K, Liquid) of 1205.58 ± 1.4 kg/m3 and a refractive index ([2]; 293.15 K, Liquid) of 1.51183 ± 0.0011. The refractive index ([2]; 298.15 K, Liquid) was 1.50982 ± 0.0011, the refractive index ([2]; 303.15 K, Liquid) was 1.50796 ± 0.0011 and the refractive index ([2]; 308.15 K, Liquid) was 1.50612 ± 0.0011. The refractive index ([2]; 313.15 K, Liquid) was 1.50427 ± 0.0011, the refractive index ([2]; 318.15 K, Liquid) was 1.50232 ± 0.0011 and the refractive index ([2]; 323.15 K, Liquid) was 1.50047 ± 0.0011.
